The test system of this data set is full skin models. It is filed as cell-based, human. The method, then:
Additionally, the influence on the cell viability and the release of lactate dehydrogenase (LDH) was examined over the incubation time. Disruptions of the cell membranes can be measured by the release of the cytosolic enzyme LDH and be evaluated as a marker for cellular necrosis. As the biocompatibility of the material is determined by further cellular and molecular factors, the analysis of the cellular interleukin release allows the conclusion on e.g. pro-inflammatory effects of the substances, which would not be possible to be detected by sole cytotoxicity. Such interleukins are interleukins 1α, 6 or 8, which are involved in coordinating the cellular proliferation, cell migration and possible inflammatory processes. Such a method is described in, for example, Wiegand C, Hipler UC. Evaluation of biocompatibility and cytotoxicity using keratinocyte and fibroblast cultures. Skin Pharmacol Physiol 2009; 22:74-82; Wiegand C, Winter D, Hipler UC. Molecular-weight-dependent toxic effects of chitosans on the human keratinocyte cell line HaCaT. Skin Pharmacol Physiol. 2010;23(3):164-70.
The spore suspensions and the solutions of sertaconazol, ciclopiroxolamin and terbinafin were prepared as in Example 1, wherein the respective test concentrations were obtained by diluting these solutions in ultrapure water (WFI; Fresenius Kabi) instead of SGB (Merck). Full skin models were produced as previously described [Reddersen K, Wiegand C, Elsner P, Hipler UC. Three-dimensional human skin model infected with Staphylococcus aureus as a tool for evaluation of bioactivity and biocompatibility of antiseptics. Int J Antimicrob Agents. 2019; 54(3):283-291; Wiegand C, Fink S, Beier O, Horn K, Pfuch A, Schimanski A, Grünler B, Hipler UC, Elsner P. Dose- and Time-Dependent Cellular Effects of Cold Atmospheric Pressure Plasma Evaluated in 3D Skin Models. Skin Pharmacol Physiol. 2016;29(5):257-265].Particularly, normal human dermal fibroblasts (NHDF; Lot 1060702.1, Promocell) and normal human epidermal keratinocytes (NHEK; Lot 9100102, Promocell) were used. Fibroblasts were cultivated in Dulbecco's modified eagle medium (DMEM; Lot MC09049P, Amimed), with 2% foetal calf serum (Lot P160509; PAN), 5 ng/mL hFGF (Lot 0329586; novoprotein) and 5 µg/ml Insulin (Lot H07443P, AMIMED) at 37°C and a 5% CO2 atmosphere. Keratinocytes were cultivated in keratinocyte medium (KBM, Lot 446M063, Promocell) at 37°C and a 5% CO2 atmosphere. The cultivation was performed over 7 days in 75 cm^2 cell culture flasks (Greiner Bio-One). The cells were subsequently detached with Trypsin-EDTA (Lot 2091326; Gibco) and dissolved in the respective medium. For producing the dermis equivalent, fibroblasts were cultivated in 12-well inserts (Greiner bio-one) with DMEM (Lot MC09049P, Amimed) + 10% foetal calf serum (Lot P160509, PAN) + 1% Gentamycin (Lot 2027100, Gibco) + 150 µg/ml ascorbic acid (Lot BCBS1081V, Sigma) for 3 weeks at […] and 5 % CO2. The medium was changed all 2-3 days. Before seeding the keratinocytes for producing the […], the medium surrounding the insert was completely removed and the dermis upper layer was coated with fibronectin (50 µg/mL; Lot 435P078, Promocell). After 30 min of incubation of the dermis equivalent with fibronectin, the seeding of the keratinocytes was performed with 2 × 10^5 cells / insert in KBM (Lot 446M063, Promocell) + 5% FKS (Lot P160509, PAN) + 1% Gentamycin (Lot 2027100, Gibco). Subsequently, the skin models were incubated for 45 min in the incubator before the models were flooded with KBM + 5% FKS + 1% Gentamycin. The skin models were cultivated for 7 days by submersion in the medium with decreasing foetal calf serum concentration (5 %, 2 %, 0 %). The medium was changed all 2-3 days. After the cultivation by submersion, the skin models were further cultivated for 12 days at the air-medium interface (airlift cultivation). […]

Consider `CCCCCCCCCCCCOS(=O)(=O)[O-].[Na+]` [SDS], for which the cell viability entry is on record as “approximately 20%”.

(Values after patent EP4129284B1, “SERTACONAZOL FOR PROVIDING A SPORISTATIC AND/OR SPORICIDAL EFFECT” (Dr. Pfleger Arzneimittel GmbH, priority 2021, dated 2023).)
